These results are taken from US20100172991A1, “Extended Release Formulation and Methods of Treating Adrenergic Dysregulation” (priority 2007, published 2010).

≈ marks a conversion by molar mass, not a printed value. Where two headings read alike, the source gives them in different places.

Data set [1] relates to systolic and diastolic blood pressure. The data set can be described thus: animal or person. The method, then:
Mean baseline ABPM data for the three treatment groups were compared with mean data obtained on Day 26 (last day of treatment) and on Days 27 and 28. A more detailed PK/PD analysis was conducted by using the individual patient ABPM data to compare the blood pressure profile at Baseline and on Day 26 of treatment. The daytime (0- to 12-hour) intervals were used in the analysis, since pharmacokinetic data were collected on Day 25, over the daytime 12-hour dosing interval at steady state. In order to investigate the maintenance of effect at the tail end of the inter-dosing interval, differences between the SBP, DBP, and HR values at Baseline and the last two hours in the inter-dosing interval (Hours 11 and 12) on Day 26 were calculated for each patient. Paired t-tests were performed to test the significance of these differences between Baseline and the last two measuring times. The approach taken to quantify the effects of clonidine on blood pressure was to calculate the difference between the areas under the BP vs. time curves (AUCBP) at Baseline and on Day 26. These values were used to relate the pharmacodynamic effect to dose, as well as to conduct the PK/PD analyses.
Pharmacokinetic-pharmacodynamic modeling was conducted using the blood pressure response data and the Cmax, Cmin and AUCτ values at Day 25 of dosing. […] The data in Table 8 summarize the PK/PD parameters from the sigmoidal Emax model.

The conditions of data set [2]: traditional oral formulation; cited from earlier work.
The mark [3] stands for this setting: sigmoidal Emax model, Day 25 exposure.

`Clc1cccc(Cl)c1NC1=NCCN1` [clonidine, 2,6-dichloro-N-2-imidazolidinylidene benzeneamine]: the concentration giving a half-maximal response (EC50) in data set [1] (Homo sapiens, 600 h, read-out: EC50, Diastolic BP vs Cmax) was found to be 0.431 ng/mL (≈ 1.87 nM). The EC50 in data set [1] (Homo sapiens, 600 h, read-out: EC50, Diastolic BP vs Cmin) came out at 0.341 ng/mL (≈ 1.48 nM). In addition, the EC50 in data set [1] (Homo sapiens, 600 h, read-out: EC50, Systolic BP vs Cmax) stood at 0.458 ng/mL (≈ 1.99 nM). The EC50 in data set [1] (Homo sapiens, 600 h, read-out: EC50, Systolic BP vs Cmin) worked out at 0.359 ng/mL (≈ 1.56 nM). In addition, the 90% effect concentration (EC90) in data set [1] (Homo sapiens, 600 h, read-out: EC90, Diastolic BP vs AUCτ) is 5.92 ng/mL (≈ 25.7 nM). Besides, in data set [1] (setting [3]), the “Emax (ΔBP), Diastolic BP vs AUCτ” value is 16.8; the “Emax (ΔBP), Diastolic BP vs Cmax” value amounted to 16.7; the “Emax (ΔBP), Diastolic BP vs Cmin” value is on record as 16.8; the “Emax (ΔBP), Systolic BP vs AUCτ” value was 24.3. Also, in data set [1] (setting [3]), the “Emax (ΔBP), Systolic BP vs Cmax” value is 24.3 and the “Emax (ΔBP), Systolic BP vs Cmin” value worked out at 24.4. In data set [2], the biological half-life result is recorded as “four to six”.
